Experiment [1] concerns Human immunodeficiency virus 1. Nature of the experiment: Antiviral activity against HIV1 infected in CEM-SS cells assessed as virus-induced cytopathic effect by XTT assay. It counts as functional, organism-based. As to conditions: for IC50: Human immunodeficiency virus 1, CEM-SS. For orientation: Protection from cytopathic effect is a common read-out in antiviral testing.

The target of experiment [2] is Human immunodeficiency virus type 1 reverse transcriptase (Human immunodeficiency virus 1, UniProt Q72547). Kind of experiment: Inhibition of HIV1 reverse transcriptase.

For orientation: IC50 means the point on the concentration scale where inhibition reaches its midpoint.

Structures are written as SMILES. Activity calls are given as the source filed them. The calls are words filed in the database; no cut-off is given here.

Take `COC(=O)[C@@H](C)CCOc1ccc2c(OC)c3ccoc3nc2c1`: the outcome in experiment [1] was inactive.

As for `CC(C)=CCOc1c(CC=C(C)C)c(O)nc2ccccc12`, the results for the concentration for half-maximal inhibition (IC50) in experiment [1] and in experiment [2] were 26.9 µM and 8 µM, respectively.

As to `COc1c2ccc(OCC[C@H](C)O)cc2nc2occc12`, the outcome in experiment [1] was inactive.

Turning to `C=CC(C)(C)C1(CC=C(C)C)C(=O)Nc2ccccc2C1=O` (configuration not stated) [BUCHAPINE], the values for the IC50 in experiment [1] and in experiment [2] were 29 µM and 12 µM, respectively.

Consider `COC(=O)/C(C)=C/COc1ccc2c(OC)c3ccoc3nc2c1`, for which the result in experiment [1] was inactive.

The record behind these values is ChEMBL document CHEMBL1158254, “HIV inhibitory natural products. 26. Quinoline alkaloids from Euodia roxburghiana” (J Nat Prod, 1996).
